In this series the test system is rodent carcinogenicity bioassays, tumor incidence. The series can be described thus: CCRIS carcinogenicity studies. The following applies: Dose: 0, Dose: 0. A digest of the protocol:
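Archive of carcinogenicity, mutagenicity, tumor promotion and tumor inhibition results drawn from journals, NCI reports and other sources, expert-reviewed; covers 1985-2011 and is no longer updated.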

Calls of active or inactive are those of the source. No rule for the calls is given here.

As to `O=P(OCC(Br)CBr)(OCC(Br)CBr)OCC(Br)CBr` (stereo not drawn), the carcinogen call reads like this: (Species: MOUSE, Strain/Sex: B6C3F1/FEMALE, Route: ORAL, 500, 1000 PPM IN DIET, 500, 1000 PPM IN DIET, Tumor Site: Type of Lesion: STOMACH: SQUAMOUS CELL PAPILLOMA OR CARCINOMA, LUNG: ALVEOLAR/BRONCHIOLAR ADENOMA OR CARCINOMA, LIVER: HEPATOCELLULAR AD, Tumor Site: Type of Lesion: STOMACH: SQUAMOUS CELL PAPILLOMA OR CARCINOMA, LUNG: ALVEOLAR/BRONCHIOLAR ADENOMA OR CARCINOMA, LIVER: HEPATOCELLULAR AD) “active; positive”; (Species: MOUSE, Strain/Sex: B6C3F1/MALE, Route: ORAL, 500, 1000 PPM IN DIET, 500, 1000 PPM IN DIET, Tumor Site: Type of Lesion: STOMACH: SQUAMOUS CELL PAPILLOMA OR CARCINOMA, LUNG: ALVEOLAR/BRONCHIOLAR ADENOMA OR CARCINOMA) “active; positive”; (Species: RAT, Strain/Sex: F344/FEMALE, Route: ORAL, 50, 100 PPM IN DIET, 50, 100 PPM IN DIET, Tumor Site: Type of Lesion: KIDNEY: TUBULAR CELL ADENOMA) “active; positive”; (Species: RAT, Strain/Sex: F344/MALE, Route: ORAL, 50, 100 PPM IN DIET, 50, 100 PPM IN DIET, Tumor Site: Type of Lesion: KIDNEY: TUBULAR CELL ADENOMA OR ADENOCARCINOMA) “active; positive”.

Consider `COc1cc2c(c3ccc4ccccc4c13)CCC2`, for which, where the note is “Species: MOUSE, Strain/Sex: TO/MALE, FEMALE, Route: DERMAL, 50 UG (10 µL OF A 0.5% W/V TOLUENE SOLUTION) 2/WK FOR 70 WK (STUDY DURATION: 70 WK), Tumor Site: Type of Lesion: SKIN: PAPILLOMA OR CARCINOMA”, the carcinogen call was “active; positive”.

For `Cc1cccc(OCC(O)CNC(C)(C)C)c1[N+](=O)[O-]` (stereo not drawn), the carcinogen call (Species: RAT, Strain/Sex: WISTAR/FEMALE, Route: ORAL, 25, 50, 100 MG/KG DAILY BY GAVAGE FOR 3 OR 6 MO, 25, 50, 100 MG/KG DAILY BY GAVAGE FOR 3 OR 6 MO, Tumor Site: Type of Lesion: LIVER: NEOPLASTIC NODULE, HEPATOCELLULAR CARCINOMA) is “active; positive”.

Regarding `COC(=O)C1=CCCN(C)C1`, the carcinogen call is “inactive; negative” (Species: MOUSE, Strain/Sex: SWISS/FEMALE, Route: GAVAGE, 1 MG/D 5 D/WK FOR LIFE (STUDY DURATION: LIFE)) and “active; positive” (Species: MOUSE, Strain/Sex: SWISS/MALE, Route: GAVAGE, 1 MG/D 5 D/WK FOR LIFE (STUDY DURATION: LIFE), Tumor Site: Type of Lesion: LIVER: HEMANGIOMA, LUNG: ADENOCARCINOMA, STOMACH: SQUAMOUS CELL CARCINOMA, Tumor Site: Type of Lesion: LIVER: HEMANGIOMA, LUNG: ADENOCARCINOMA, STOMACH: SQUAMOUS CELL CARCINOMA).

In the case of `CCN=c1cc2oc3cc(NCC)c(C)cc3c(-c3ccccc3C(=O)OCC)c-2cc1C`, the carcinogen call is “inactive; negative” (Species: MOUSE, Strain/Sex: B6C3F1/FEMALE, Route: ORAL, 500, 1000 PPM IN FEED FOR 103 WK (STUDY DURATION: 105 WK), 500, 1000 PPM IN FEED FOR 103 WK (STUDY DURATION: 105 WK)); “inactive; negative” (Species: MOUSE, Strain/Sex: B6C3F1/MALE, Route: ORAL, 1000, 2000 PPM IN FEED FOR 103 WK (STUDY DURATION: 105 WK), 1000, 2000 PPM IN FEED FOR 103 WK (STUDY DURATION: 105 WK)); “equivocal” (Species: RAT, Strain/Sex: F344/FEMALE, Route: ORAL, 120, 250 PPM IN FEED FOR 103 WK (STUDY DURATION: 105 WK), 120, 250 PPM IN FEED FOR 103 WK (STUDY DURATION: 105 WK), Tumor Site: Type of Lesion: ADRENAL GLAND: PHEOCHROMOCYTOMA OR MALIGNANT PHEOCHROMOCYTOMA); “equivocal” (Species: RAT, Strain/Sex: F344/MALE, Route: ORAL, 120, 250 PPM IN FEED FOR 103 WK (STUDY DURATION: 105 WK), 120, 250 PPM IN FEED FOR 103 WK (STUDY DURATION: 105 WK), Tumor Site: Type of Lesion: INTEGUMENTARY SYSTEM: KERATOACANTHOMA).

For `CCOCn1c(-c2ccc(Cl)cc2)c(C#N)c(Br)c1C(F)(F)F`, the carcinogen call was “inactive; negative (study details not given in source; purity 94.5%)” (Species: Mouse, Strain/Sex: CD-1/Female (65/group), Route: Oral, 20, 120, 240 ppm in diet for 80 wk, 20, 120, 240 ppm in diet for 80 wk); “inactive; negative (study details not given in source; purity 94.5%)” (Species: Mouse, Strain/Sex: CD-1/Male (65/group), Route: Oral, 20, 120, 240 ppm in diet for 80 wk, 20, 120, 240 ppm in diet for 80 wk); “inactive; negative (study details not given in source; purity 94.5%)” (Species: Rat, Strain/Sex: Sprague-Dawley/Female (65/group), Route: Oral, 60, 300, 600 ppm in diet for up to 104 wk, 60, 300, 600 ppm in diet for up to 104 wk); “inactive; negative (study details not given in source; purity 94.5%)” (Species: Rat, Strain/Sex: Sprague-Dawley/Male (65/group), Route: Oral, 60, 300, 600 ppm in diet for up to 104 wk, 60, 300, 600 ppm in diet for up to 104 wk).

Consider `O=C(O)[C@@H](O)[C@@H](O)[C@H](O)[C@@H](O)C(=O)[O-].O=C(O)[C@@H](O)[C@@H](O)[C@H](O)[C@@H](O)C(=O)[O-].O=C(O)[C@@H](O)[C@@H](O)[C@H](O)[C@@H](O)C(=O)[O-].[Fe+3]`, for which, for the setting “Species: RAT, Strain/Sex: WISTAR/MALE, Route: INTRAPERITONEAL, 5 MG/KG IN GLUCOSE SOLUTION 1/D 6 D/WK FOR 3 MO (STUDY DURATION: 1 YR, 3 MO), Tumor Site: Type of Lesion: PERITONEAL CAVITY: MESOTHELIOMA”, the carcinogen call was “active; positive”.

For `O=[N+]([O-])c1ccc2ccc3c4ccccc4c([N+](=O)[O-])c4ccc1c2c43`, the carcinogen call (Species: RAT, Strain/Sex: F344/MALE, Route: SUBCUTANEOUS IMPLANT, 8, 40, 200, 1000 UG IN 50 µL BEESWAX/TRICAPRYLIN IMPLANTED FOR UP TO 45 WK (STUDY DURATION: 45 WK), 8, 40, 200, 1000 UG IN 50 µL BEESWAX/TRICAPRYLIN IMPLANTED FOR UP TO 45 WK (STUDY DURATION: 45 WK), Tumor Site: Type of Lesion: IMPLANT SITE: TUMOR) is “active; positive” and the carcinogen call (Species: RAT, Strain/Sex: F344/MALE, Route: SUBCUTANEOUS, 8, 40, 200, 1000 UG SUSPENDED IN BEESWAX/TRICAPRYLIN (1:1) ONCE (STUDY DURATION: LIFETIME), 8, 40, 200, 1000 UG SUSPENDED IN BEESWAX/TRICAPRYLIN (1:1) ONCE (STUDY DURATION: LIFETIME), Tumor Site: Type of Lesion: SUBCUTANEOUS TISSUE: TUMOR) was “active; positive”.

Consider `CC1(C)CN=C(NN=C(/C=C/c2ccc(C(F)(F)F)cc2)/C=C/c2ccc(C(F)(F)F)cc2)NC1`, for which the carcinogen call by setting is: (Species: Mouse, Strain/Sex: CD-1/Female (?/Group), Route: Oral, 25, 50, 100, 200 ppm of 92% hydramethylnon in diet for 18 mo, study duration 18 mo, 25, 50, 100, 200 ppm of 92% hydramethylnon in diet for 18 mo, study duration 18 mo) “inactive; negative”; (Species: Mouse, Strain/Sex: CD-1/Male (?/Group), Route: Oral, 25, 50, 100, 200 ppm of 92% hydramethylnon in diet for 18 mo, study duration 18 mo, 25, 50, 100, 200 ppm of 92% hydramethylnon in diet for 18 mo, study duration 18 mo) “inactive; negative”; (Species: Rat, Strain/Sex: CD/Female (50/Group), Route: Oral, 25, 50, 100, 200 ppm in diet for 2 yr, study duration 2 yr, 25, 50, 100, 200 ppm in diet for 2 yr, study duration 2 yr) “inactive; negative”; (Species: Rat, Strain/Sex: CD/Male (50/Group), Route: Oral, 25, 50, 100, 200 ppm in diet for 2 yr, study duration 2 yr, 25, 50, 100, 200 ppm in diet for 2 yr, study duration 2 yr) “inactive; negative”.
